Measured values from patent US10428082B2, “Triazole derivatives of melampomagnolide B and methods of use thereof” (BioVentures, LLC, priority 2016, dated 2019).

Assays:
Test in all cases: NCI 60 growth inhibition
Format in all cases: cell-based, human
[1] = tested on: 786-0; conditions: 786-0, Renal Cancer
Protocol: (§1) The above triazole derivatives of melampomagnolide B were evaluated for growth inhibitory properties against an NCI panel of 60 human cancer cell lines derived from nine human cancer cell types, grouped into disease sub-panels that represent leukemia, lung, colon, central nervous system (CNS), melanoma, renal, ovary, breast, and prostate cancer cells. Growth inhibitory (GI50) effects were measured as a function of the variation of optical density as a percentage of control.

[2] = tested on: A549/ATCC; conditions: Non-Small Cell Lung Cancer
Protocol: as §1

[3] = tested on: ACHN; conditions: Renal Cancer
Protocol: as §1

[4] = tested on: CCRF-CEM; conditions: Leukemia
Protocol: as §1

[5] = tested on: COLO 205; conditions: COLO 205, Colon Cancer
Protocol: as §1

[6] = tested on: DU-145; conditions: DU-145, Prostate Cancer
Protocol: as §1

[7] = tested on: EKVX; conditions: Non-Small Cell Lung Cancer
Protocol: as §1

[8] = tested on: HCC-2998; conditions: HCC-2998, Colon Cancer
Protocol: as §1

[9] = tested on: HCT-15; conditions: HCT-15, Colon Cancer
Protocol: as §1

[10] = tested on: HOP-62; conditions: HOP-62, Non-Small Cell Lung Cancer
Protocol: as §1

[11] = tested on: HS 578T; conditions: Breast Cancer
Protocol: as §1

[12] = tested on: LOX IMVI; conditions: Melanoma
Protocol: as §1

[13] = tested on: M14; conditions: M14, Melanoma
Protocol: as §1

[14] = tested on: MALME-3M; conditions: Melanoma
Protocol: as §1

[15] = tested on: MCF7; conditions: MCF7, Breast Cancer
Protocol: as §1

[16] = tested on: MDA-MB-435; conditions: MDA-MB-435, Melanoma
Protocol: as §1

[17] = tested on: MDA-MB-468; conditions: MDA-MB-468, Breast Cancer
Protocol: as §1

[18] = tested on: MOLT-4; conditions: MOLT-4, Leukemia
Protocol: as §1

[19] = tested on: NCI-H226; conditions: NCI-H226, Non-Small Cell Lung Cancer
Protocol: as §1

[20] = tested on: NCI-H23; conditions: NCI-H23, Non-Small Cell Lung Cancer
Protocol: as §1

[21] = tested on: NCI-H322M; conditions: Non-Small Cell Lung Cancer
Protocol: as §1

[22] = tested on: NCI-H460; conditions: NCI-H460, Non-Small Cell Lung Cancer
Protocol: as §1

[23] = tested on: NCI-H522; conditions: NCI-H522, Non-Small Cell Lung Cancer
Protocol: as §1

[24] = tested on: NCI/ADR-RES; conditions: Ovarian Cancer
Protocol: as §1

[25] = tested on: OVCAR-4; conditions: OVCAR-4, Ovarian Cancer
Protocol: as §1

[26] = tested on: OVCAR-5; conditions: OVCAR-5, Ovarian Cancer
Protocol: as §1

[27] = tested on: OVCAR-8; conditions: OVCAR-8, Ovarian Cancer
Protocol: as §1

[28] = tested on: PC-3; conditions: PC-3, Prostate Cancer
Protocol: as §1

[29] = tested on: RPMI-8226; conditions: RPMI-8226, Leukemia
Protocol: as §1

[30] = tested on: SF-268; conditions: SF-268, CNS Cancer
Protocol: as §1

[31] = tested on: SF-295; conditions: SF-295, CNS Cancer
Protocol: as §1

[32] = tested on: SF-539; conditions: SF-539, CNS Cancer
Protocol: as §1

[33] = tested on: SK-MEL-2; conditions: SK-MEL-2, Melanoma
Protocol: as §1

[34] = tested on: SK-MEL-5; conditions: SK-MEL-5, Melanoma
Protocol: as §1

[35] = tested on: SW-620; conditions: SW-620, Colon Cancer
Protocol: as §1

[36] = tested on: U251; conditions: U251, CNS Cancer
Protocol: as §1

[37] = tested on: UACC-257; conditions: Homo sapiens; UACC-257, Melanoma, Table 2
Protocol: as §1

[38] = tested on: UACC-62; conditions: Homo sapiens; UACC-62, Melanoma, Table 2
Protocol: as §1

[39] = tested on: UO-31; conditions: UO-31, Renal Cancer
Protocol: as §1

[40] = tested on: TK-10; conditions: TK-10, Renal Cancer, Table 3
Protocol: as §1

With `C=C1C(=O)O[C@H]2[C@H]1CC/C(Cn1cc(-c3cc(C(F)(F)F)cc(C(F)(F)F)c3)nn1)=C\CC[C@@]1(C)O[C@@H]21` [JVM 4-29, (1aR,7aS,10aS,10bS,E)-5-((4-(3,5-bis(Trifluoromethyl)phenyl)-1H-1,2,3-triazol-1-yl)methyl)-1a-methyl-8-methylene-2,3,6,7,7a,8,10a,10b-octahydrooxireno[2′,3′:9,10]cyclodeca[1,2-b]furan-9(1aH)-one] the GI50 ([1]; Homo sapiens, Table 2) was 160 nM, the GI50 ([2]; Homo sapiens, Table 2) was 1360 nM and the GI50 ([3]; Homo sapiens, Table 2) was 160 nM. For the same molecule, the GI50 ([4]; Homo sapiens, Table 2) was 690 nM, the GI50 ([5]; Homo sapiens, Table 2) was 140 nM and the GI50 ([6]; Homo sapiens, Table 2) was 720 nM. It also gave a GI50 ([7]; Homo sapiens, Table 2) of 1500 nM, a GI50 ([8]; Homo sapiens, Table 2) of 1170 nM and a GI50 ([9]; Homo sapiens, Table 2) of 190 nM. It also gave a GI50 ([10]; Homo sapiens, Table 2) of 1560 nM, a GI50 ([11]; Homo sapiens, Table 2) of 1030 nM and a GI50 ([12]; Homo sapiens, Table 2) of 150 nM. For the same molecule, the GI50 ([13]; Homo sapiens, Table 2) was 350 nM, the GI50 ([14]; Homo sapiens, Table 2) was 520 nM and the GI50 ([15]; Homo sapiens, Table 2) was 190 nM. For the same molecule, the GI50 ([16]; Homo sapiens, Table 2) was 740 nM, the GI50 ([17]; Homo sapiens, Table 2) was 420 nM and the GI50 ([18]; Homo sapiens, Table 2) was 190 nM. It also gave a GI50 ([19]; Homo sapiens, Table 2) of 1650 nM, a GI50 ([20]; Homo sapiens, Table 2) of 1120 nM and a GI50 ([21]; Homo sapiens, Table 2) of 1670 nM. The GI50 ([22]; Homo sapiens, Table 2) was 1220 nM, the GI50 ([23]; Homo sapiens, Table 2) was 120 nM and the GI50 ([24]; Homo sapiens, Table 2) was 1050 nM. For the same molecule, the GI50 ([25]; Homo sapiens, Table 2) was 500 nM, the GI50 ([26]; Homo sapiens, Table 2) was 1100 nM and the GI50 ([27]; Homo sapiens, Table 2) was 880 nM. The GI50 ([28]; Homo sapiens, Table 2) was 830 nM, the GI50 ([29]; Homo sapiens, Table 2) was 220 nM and the GI50 ([30]; Homo sapiens, Table 2) was 1080 nM. For the same molecule, the GI50 ([31]; Homo sapiens, Table 2) was 1190 nM, the GI50 ([32]; Homo sapiens, Table 2) was 170 nM and the GI50 ([33]; Homo sapiens, Table 2) was 340 nM. It also gave a GI50 ([34]; Homo sapiens, Table 2) of 1470 nM, a GI50 ([35]; Homo sapiens, Table 2) of 190 nM and a GI50 ([36]; Homo sapiens, U-251, Table 2) of 1440 nM. It also gave a GI50 [37] of 1460 nM, a GI50 [38] of 340 nM and a GI50 ([39]; Homo sapiens, Table 2) of 380 nM.
`C=C1C(=O)O[C@H]2[C@H]1CC/C(Cn1cc(-c3ccccc3C(F)(F)F)nn1)=C\CC[C@@]1(C)O[C@@H]21` [JVM 4-59] gave a GI50 ([1]; Table 3) of 1840 nM, a GI50 ([2]; Table 3) of 7230 nM and a GI50 ([3]; Table 3) of 1450 nM. It also gave a GI50 ([4]; Table 3) of 760 nM, a GI50 ([5]; Table 3) of 1980 nM and a GI50 ([6]; Table 3) of 1420 nM. It also gave a GI50 ([7]; Table 3) of 2320 nM, a GI50 ([8]; Table 3) of 1850 nM and a GI50 ([9]; Table 3) of 1050 nM. The GI50 ([10]; Table 3) was 4730 nM, the GI50 ([11]; Table 3) was 3570 nM and the GI50 ([12]; Table 3) was 1110 nM. It also gave a GI50 ([13]; Table 3) of 2150 nM, a GI50 ([14]; Table 3) of 1700 nM and a GI50 ([15]; Table 3) of 1330 nM. For the same molecule, the GI50 ([16]; Table 3) was 2180 nM, the GI50 ([17]; Table 3) was 1140 nM and the GI50 ([18]; Table 3) was 3030 nM. The GI50 ([19]; Table 3) was 1730 nM, the GI50 ([20]; Table 3) was 1750 nM and the GI50 ([21]; Table 3) was 10800 nM. It also gave a GI50 ([22]; Table 3) of 3970 nM, a GI50 ([23]; Table 3) of 1380 nM and a GI50 ([24]; Table 3) of 2990 nM. It also gave a GI50 ([25]; Table 3) of 2770 nM, a GI50 ([26]; Table 3) of 2460 nM and a GI50 ([27]; Table 3) of 2230 nM. For the same molecule, the GI50 ([28]; Table 3) was 4320 nM, the GI50 ([29]; Table 3) was 1870 nM and the GI50 ([30]; Table 3) was 2090 nM. For the same molecule, the GI50 ([31]; Table 3) was 10300 nM, the GI50 ([32]; Table 3) was 1760 nM and the GI50 ([33]; Table 3) was 2450 nM. It also gave a GI50 ([34]; Table 3) of 1720 nM, a GI50 ([35]; Table 3) of 1240 nM and a GI50 [40] of 1710 nM. The GI50 ([36]; Table 3) was 1830 nM and the GI50 ([39]; Table 3) was 1230 nM.
